Laboratory results reported in US11945794B2, “Nuclear transport modulators and uses thereof” (Karyopharm Therapeutics Inc., priority 2013, dated 2024).

Tests used:
CRM1 = molecular target: T1, CRM1 (Homo sapiens, UniProt O14980); assay: Inhibition of nuclear export, RevGFP assay in U2OS-RevGFP cells; type: cell-based; conditions: approximately 1 hour incubation
T1 construct: endogenous in cells; host or cells: U2OS cells stably expressing Rev-GFP
Description: The inhibition of CRM1 mediated nuclear export by compounds of the invention was determined in a RevGFP assay. Rev is a protein from human immunodeficiency virus type 1 (HIV-1) and contains a nuclear export signal (NES) in its C-terminal domain and a nuclear localization signal (NLS) in its N-terminal domain. Nuclear export of Rev protein is dependent on the classical NES/CRM1 pathway (Neville et al, 1997, Kau et al, 2003).
In this assay, U2OS-RevGFP cells were seeded onto clear-bottom, black, 384-well plates the day before the experiment. Compounds were serially diluted 1:2 starting from 40 μM in a separate 384-well plate in DMEM, and then transferred onto cells. Cells were incubated with compound for approximately 1 hour before fixation with 3.7% formaldehyde and nuclei staining with Hoechst 33258. The amount of GFP in cell nuclei was measured and compound IC50s were determined (Kau et al, 2003).

3T3 cells = assay: MTT cell proliferation assay; type: cell-based; conditions: Mus musculus, NIH3T3, approximately 64-72 hours
Description: (§1) The MTT cell proliferation assay was used to study the cytotoxic properties of the compounds. The assay was performed according to the method described by Roche Molecular Biochemicals, with minor modifications. The assay is based on the cleavage of the tetrazolium salt, MTT, in the presence of an electron-coupling reagent. The water-insoluble formazan salt produced must be solubilized in an additional step. Cells grown in a 96-well tissue culture plate were incubated with the MTT solution for approximately 4 hours. After this incubation period, a water-insoluble formazan dye formed. After solubilization, the formazan dye was quantitated using a scanning multi-well spectrophotometer (ELISA reader). […] The cells were seeded at 5,000-10,000 cells in each well of 96-well plate in 100 μL of fresh culture medium and were allowed to attach overnight. The stock solutions of the compounds were diluted in 100 μL cell culture medium to obtain eight concentrations of each test compound, ranging from 1 nM to 30 μM. […] All optical densities were measured at 490 nm using a Vmax Kinetic Microplate Reader (Molecular Devices). In most cases, the assay was performed in duplicate and the results were presented as a mean percent inhibition to the negative control±SE. The following formula was used to calculate the percent of inhibition: Inhibition (%)=(1−(ODo/OD))×100.
(§2) The compounds were tested against Z138, MM1S and 3T3 cells. The Z138 cell line is a mature B-cell acute lymphoblastic leukemia cell line derived from a patient with chronic lumphocytic leukemia. The MM1S cell line was established from the peripheral blood of a human multiple myeloma patient. 3T3 cells are standard fibroblast cells; they were originally isolated from Swiss mouse embryo tissue.

MM1S cells = assay: MTT cell proliferation assay; type: cell-based; conditions: Homo sapiens, MM1.S, approximately 64-72 hours
Description: as §1, §2

Z138 cells = assay: MTT cell proliferation assay; type: cell-based; conditions: Homo sapiens, Z-138, approximately 64-72 hours
Description: as §1, §2

MDA-MB-468 xenograft = MDA-MB-468 xenograft model; type: in vivo, mouse; conditions: 10 mg/kg PO once daily, CB-17 SCID mice, compared to vehicle
Description: MDA-MB-468 (ATCC #HTB-102) breast adenocarcinoma cells were obtained from ATCC. These cells were grown in high glucose DMEM medium supplemented with 10% fetal bovine serum, 1% penicillin and streptomycin, and 2 mM L-Glutamine. Cells were sub-cultured by dilution at a ratio of 1:4. MDA-MB-468 cells were harvested by trypsinization and counted using a hemocytometer. Cells were resuspended in PBS at a concentration of 4×10^8 cells per mL. Cells were placed on ice and mixed with an equal volume of Matrigel (BD Biosciences CB-40234). Twenty-two (22) CB-17 SCID mice were inoculated sub-cutaneously in the left flank with 4×10^7 MDA-MB-468 cells. Treatment was initiated when the tumors reached a mean volume of ˜100 mm^3. […] Animals' weights and condition were recorded daily, and tumors were measured on Mondays, Wednesdays, and Fridays.

T1 sequence (O14980 whole entry): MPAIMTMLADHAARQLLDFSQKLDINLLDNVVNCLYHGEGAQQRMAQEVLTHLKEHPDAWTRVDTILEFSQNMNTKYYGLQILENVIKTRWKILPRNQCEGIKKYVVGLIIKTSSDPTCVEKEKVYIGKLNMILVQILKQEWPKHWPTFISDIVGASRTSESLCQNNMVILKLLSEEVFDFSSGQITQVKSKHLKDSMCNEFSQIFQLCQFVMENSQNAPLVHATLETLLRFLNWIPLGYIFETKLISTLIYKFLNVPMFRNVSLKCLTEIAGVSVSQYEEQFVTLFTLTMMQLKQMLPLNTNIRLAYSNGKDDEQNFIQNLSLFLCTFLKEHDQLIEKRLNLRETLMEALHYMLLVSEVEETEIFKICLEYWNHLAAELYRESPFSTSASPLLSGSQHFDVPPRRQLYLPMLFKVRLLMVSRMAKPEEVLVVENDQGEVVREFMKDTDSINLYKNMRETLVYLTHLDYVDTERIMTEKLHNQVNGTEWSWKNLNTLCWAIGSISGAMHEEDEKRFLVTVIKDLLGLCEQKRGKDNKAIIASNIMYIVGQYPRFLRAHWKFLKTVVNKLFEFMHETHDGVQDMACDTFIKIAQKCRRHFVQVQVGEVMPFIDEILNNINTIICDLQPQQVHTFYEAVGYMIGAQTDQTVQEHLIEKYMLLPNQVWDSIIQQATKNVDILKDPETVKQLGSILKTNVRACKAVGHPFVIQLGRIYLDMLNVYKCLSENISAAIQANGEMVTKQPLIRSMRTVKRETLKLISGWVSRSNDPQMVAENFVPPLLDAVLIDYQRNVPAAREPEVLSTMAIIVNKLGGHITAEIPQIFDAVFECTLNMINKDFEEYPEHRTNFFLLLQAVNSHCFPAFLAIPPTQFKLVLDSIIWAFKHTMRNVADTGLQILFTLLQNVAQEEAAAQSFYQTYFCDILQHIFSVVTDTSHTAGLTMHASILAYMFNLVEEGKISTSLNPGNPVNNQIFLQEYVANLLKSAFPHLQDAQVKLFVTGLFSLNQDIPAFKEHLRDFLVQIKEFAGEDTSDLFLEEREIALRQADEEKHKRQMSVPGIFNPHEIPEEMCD

IC50 (CRM1) | IC50 (MM1S cells) | SMILES | IC50 (3T3 cells) | IC50 (Z138 cells) | mean tumor volume (MDA-MB-468 xenograft)
< 100 nM | < 100 nM | NC(=O)/C(=C/n1cnc(-c2cc(C(F)(F)F)cc(C(F)(F)F)c2)n1)c1cnc2ccccc2c1 [Compound 149, (E)-3-(3-(3,5-bis(trifluoromethyl)phenyl)-1H-1,2,4-triazol-1-yl)-2-(quinolin-3-yl)acrylamide] | > 30000 nM | < 100 nM | mean tumor volume was reduced
< 100 nM | < 100 nM | N#Cc1cncc(/C(=C\n2cnc(-c3cc(C(F)(F)F)cc(C(F)(F)F)c3)n2)C(N)=O)c1 [Compound 148, (E)-3-(3-(3,5-bis(trifluoromethyl)phenyl)-1H-1,2,4-triazol-1-yl)-2-(5-cyanopyridin-3-yl)acrylamide] | > 30000 nM | < 100 nM | –
< 100 nM | < 100 nM | NC(=O)/C(=C/n1cnc(-c2cc(C(F)(F)F)cc(C(F)(F)F)c2)n1)c1cnc(F)nc1 [Compound 137, (E)-3-(3-(3,5-bis(trifluoromethyl)phenyl)-1H-1,2,4-triazol-1-yl)-2-(2-fluoropyrimidin-5-yl)acrylamide] | > 30000 nM | 100 to 5000 nM | –
100 to 5000 nM | 100 to 5000 nM | N#C/C(=C/n1cnc(-c2cc(C(F)(F)F)cc(C(F)(F)F)c2)n1)c1cccnc1 [Compound 102, (E)-3-(3-(3,5-bis(trifluoromethyl)phenyl)-1H-1,2,4-triazol-1-yl)-2-(pyridin-3-yl)acrylonitrile] | 5000 to 30000 nM | 100 to 5000 nM | –
